Results as given in patent US20130210024A1, “COMBINATION TREATMENT OF CANCER” (Agency for Science, Technology and Research, priority 2010, published 2013).
Residues, ends and D or L forms follow the SMILES beside them. *: point of attachment. Cbz = O=C(OCc1ccccc1)*

Experiments:
EZH2 complex = settings: cancer cells; previously shown (Tan et al., 2007); cited from earlier work
[1] = tested on: U2OS, HCT116, Saos-2 and p53-deficient HCT116 cells; assay: FACS cell cycle / apoptosis analysis, DZNep combined with ADR or ETO in cancer cells; assay type: cell-based, human
Description: (§1) The human colorectal cancer HCT116 cells were kindly provided by Dr. Bert Vogelstein (John Hopkins University, MD). Other cell lines used in this study, including human osteosarcoma U2OS and Saos-2 and breast cancer MCF7 were obtained from the American Type Culture Collection (ATCC) and maintained in Dulbecco's modified Eagle medium (DMEM) supplemented with 10% fetal bovine serum (FBS) and antibiotics in a 37° C. humidified incubator containing 5% CO2. Human breast epithelial MCF10A cells were obtained from ATCC and maintained as recommended (Kadota et al 2010). Adramycin (ADR), Etopside (ETO), Nocodazole (Noco), proteasomal inhibitors MG132 and MG115 were purchased from Sigma-Aldrich.
(§2) Cells were harvested and fixed in 70% ethanol. Fixed cells were stained with propidium iodide (50 μg/mL) after treatment with RNase (100 μg/mL). The stained cells were analyzed for DNA content by fluorescence-activated cell sorting (FACS) in a FACS Calibur (Becton Dickinson Instrument, San Jose, Calif.). Cell cycle fractions were quantified using the CellQuest software (Becton Dickinson). For synchronization experiment, HCT116 cells expressing FBXO32 or empty vector were treated with Nocodazole (400 ng/ml) for 16 h, mitotically arrested cells were treated with ADR and then subject to FACS for cell cycle analysis.

FBXO32, p21, p-Chk1 = assay: Immunoblot analysis of FBXO32, p21 and Chk1 phosphorylation after DZNep with ADR or ETO; assay type: cell-based, human
Description: as §1
Protein extracts were prepared by lysis in RIPA buffer containing (50 mM Tris-HCl, pH 7.4, 150 mM NaCl, 1% Nonidet P-40, 0.5% sodium deoxycholate, 0.1% SDS, 1 mM EDTA, 50 mM NaF, 0.1 mM Na3VO4) and protease inhibitor cocktail (Roch). Lysates were resolved by SDS-PAGE, transferred onto a immobilon membrane (Millipore) and probed with indicated antibodies. For co-immunoprecipitation experiments, cells were lysed and incubated with the indicated antidodies and protein G-seperose beads overnight at 4° C. Beads were washed four times with lysis buffer. The bound proteins were dissolved in SDS sample buffer, resolved by SDS-PAGE, and immunoblotted with the indicated antibodies. Where indicated, proteosome inhibitors MG-132 (5 μM) or MG-115 (20 μM) were used to treat cells for 8 h before protein extraction. Antibodies used in this study include: anti-EZH2 (Cell Signaling), anti-p21 (Santa Cruz), anti-FBXO32 (Santa Cruz), anti-p53 (Santa Cruz), anti-MDM2 (Santa Cruz), anti-phospho-Chk1 (Cell signaling), anti-Chk1 (Santa Cruz), anti-phospho-Chk2 (Cell signaling), anti-Chk2 (Upstate), anti-H3 (Cell signaling), anti-PARP (Cell Signaling), anti-H3K27me3 (Upstate), anti-actin mouse monoclonal (Sigma).

p21 mRNA = p21 mRNA level (Taqman quantitative real-time PCR); assay type: cell-based, human; settings: DZNep with ADR or ETO; data not shown
Description: Total RNA was isolated using Trizol (Invitrogen) and purified with the RNeasy Mini Kit (Qiagen). Reverse transcription was performed using an RNA Amplification kit (Ambion). Quantitative real-time PCR was assessed using the PRISM 7900 Sequence Detection System (Applied Biosystems) with specific probes from Applied Biosystem. Samples were normalized to the levels of GAPDH mRNA.

[2] = tested on: non-transformed MCF-10A, IMR90 and RWEP cells; assay: ADR or ETO-induced apoptosis in non-transformed cells with DZNep; assay type: cell-based, human; settings: data not shown
Description: as §1, §2

U2OS cells = assay: FACS cell cycle / apoptosis analysis in U2OS cells, EZH2 RNA interference plus ADR or ETO; assay type: cell-based, human; settings: control (non-knockdown) U2OS cells treated with the DNA damaging agent alone; FIG. 1A
Description: as §1
Specific siRNA oligos targeting EZH2 (as described above) and FBXO32 (FBXO32 siRNA: 5_-GTCACATCCTTTCCTGGAA-3_) mRNAs were used. The non-targeting control was purchased from Dharmacon (Lafayett, Colo.). For EZH2 knockdown, a sequential twice knockdown is performed to secure efficient gene silencing. […]
Cells were harvested and fixed in 70% ethanol. […] The stained cells were analyzed for DNA content by fluorescence-activated cell sorting (FACS) in a FACS Calibur (Becton Dickinson Instrument, San Jose, Calif.). Cell cycle fractions were quantified using the CellQuest software (Becton Dickinson). […]

SMILES: Nc1nccc2c1ncn2[C@@H]1C=C(CO)[C@@H](O)[C@H]1O [DZNep, 3-Deazaneplanocin A]
- depletion of EZH2 complex (EZH2 complex): can deplete EZH2 complex
- effect of DZNep on DNA damage-induced apoptosis, p21 and p-Chk1 when FBXO32 is knocked down ([1]; HCT116 cells with FBXO32 knockdown, FIGS. 4E, 4F): largely abolished when FBXO32 was knockdown
- checkpoints activation (FACS) ([1]; combination of DZNep with ADR or ETO, HCT116 or U2OS cells, FIG. 4A): abrogates checkpoints activation
- checkpoints (FACS), p53-deficient cells ([1]; combination of DZNep with ADR or ETO, p53-deficient HCT116 or Saos-2 cells, FIG. 4C): abrogates checkpoints
- effect on ADR or ETO-induced cell cycle arrest / apoptosis ([1]; pretreatment with DZNep, then ADR or ETO, p53-proficient U2OS and HCT116, p53-deficient Saos-2 and HCT116 cells, FIGS. 4A, 4C): converted ADR or ETO-induced cell cycle arrest to marked apoptosis
- p21 and/or p-Chk1 induction by ADR or ETO (FBXO32, p21, p-Chk1; DZNep with ADR or ETO, U2OS, HCT116, Saos-2, p53-deficient HCT116, FIGS. 4B, 4D): largely abolished
- FBXO32 induction (FBXO32, p21, p-Chk1; EZH2 depletion by DZNep, U2OS, HCT116, Saos-2, p53-deficient HCT116, FIGS. 4B, 4D): accompanied with FBXO32 induction
- ADR or ETO-induced p21 accumulation and Chk1 phosphorylation (FBXO32, p21, p-Chk1; combination of DZNep with ADR or ETO, HCT116 and U2OS cells, FIG. 4B): abolishes
- DNA damage induced p21 accumulation and Chk1 phosphorylation, p53-deficient cells (FBXO32, p21, p-Chk1; combination of DZNep with ADR or ETO, p53-deficient HCT116 and Saos-2 cells, FIG. 4D): abolishes
- p21 mRNA as cause of p21 protein downregulation (p21 mRNA): not due to a decrease in p21 mRNA
- promotion of ADR or ETO-induced apoptosis in non-transformed cells [2]: did not promote

SMILES: COc1cccc2c1C(=O)c1c(O)c3c(c(O)c1C2=O)C[C@@](O)(C(=O)CO)C[C@@H]3O[C@H]1C[C@H](N)[C@H](O)[C@H](C)O1 [Adriamycin]
- cell cycle arrest / apoptosis in control cells (U2OS cells): mainly cell cycle arrested with little apoptosis

SMILES: COc1cc([C@@H]2c3cc4c(cc3[C@@H](O[C@@H]3O[C@@H]5CO[C@@H](C)O[C@H]5[C@H](O)[C@H]3O)[C@H]3COC(=O)[C@H]23)OCO4)cc(OC)c1O [Etoposide]
- cell cycle arrest / apoptosis in control cells (U2OS cells): mainly cell cycle arrested with little apoptosis

SMILES: CC(C)C[C@@H](C=O)NC(=O)[C@H](CC(C)C)NC(=O)[C@H](CC(C)C)NC(=O)OCc1ccccc1 [MG132] (Cbz-Leu-Leu-Leu-aldehyde)
- p21 protein downregulation by DZNep with ADR or ETO, effect of proteasome inhibitor (FBXO32, p21, p-Chk1; MG132 added, data not shown): prevented
